Experimental data reported in patent US8614206B2 (Genentech, Inc., priority 2011, dated 2013).

Key:
[1] = system: MM1.S (multiple myeloma) cells; experiment: In vitro cell proliferation, MM1.S multiple myeloma cells (CellTiter-Glo, ATP); assay type: cell-based; conditions: Homo sapiens, MM1.S, 72 h, read-out: Prolif MM1S ATP (EC50)
Method in brief: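 BaF3 parental cells (medium with 2 ng/mL mIL-3) seeded at 2 k/well and MM1.S at 10 k/well, then exposed to test compound at 37° C, 5% CO2: BaF3 overnight, MM1.S for 72 hours. Viability read by CellTiter-Glo; IC50/EC50 values calculated.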

PIM1 = PIM1 (Homo sapiens (Human), UniProt P11309); experiment: Pim kinase inhibition, PIM1 LC3K (Example 901); assay type: biochemical
Source text: Determination of the Pim kinase activity of a Formula I compound is possible by a number of direct and indirect detection methods.

BaF3 parental cells = experiment: In vitro cell proliferation, BaF3 parental line + IL3 (CellTiter-Glo); assay type: cell-based, murine; conditions: Mus musculus, BaF3, BaF3 parental cells with IL-3, incubated overnight; read-out: Prolif BaF3 + IL3 (IC50)
BaF3 PIM1 cells = experiment: cells; conditions: Mus musculus, BaF3, read-out: Prolif BaF3_PIM1 (IC50), BaF3 PIM1 cells, incubated overnight
Procedure: BaF3 parental line was obtained from the DSMZ repository. BaF3 lines transfected with PIM 1 or PIM2 were generated. Mouse IL-3 was purchased from R&D Systems. G418 was purchased from Clontech. Media for BaF3 parental line contained RPMI, 10% FBS, 2 mM L-Glutamine, 2 ng/mL mIL-3. Media for BaF3 PIM1 & 2 lines contained RPMI, 10% FBS, 2 mM L-Glutamine, 250 μg/mL.
BaF3, a murine interleukin-3 dependent pro-B cell line, parental cells, BaF3 PIM1 cells, BaF3 PIM2 cells, and MM1.S (multiple myeloma) cells were seeded at 2 k/well, 5 k/well, 5 k/well, and 10 k/well respectively, in a 384-well plate, at 45 μL/well. Test compound was added at 5 μL/well. BaF3 cells (parental and transfected) were incubated overnight, while MM1.S cells were incubated for 72 hours at 37° C., 5% CO2. CELL TITER GLO® Reagent (Promega) was added at 50 μL/well, the plates were incubated for 30 minutes, and their luminescence read on an HT Analyst. IC50/EC50 values for the test compound were calculated.

Chain of PIM1 (P11309 whole entry): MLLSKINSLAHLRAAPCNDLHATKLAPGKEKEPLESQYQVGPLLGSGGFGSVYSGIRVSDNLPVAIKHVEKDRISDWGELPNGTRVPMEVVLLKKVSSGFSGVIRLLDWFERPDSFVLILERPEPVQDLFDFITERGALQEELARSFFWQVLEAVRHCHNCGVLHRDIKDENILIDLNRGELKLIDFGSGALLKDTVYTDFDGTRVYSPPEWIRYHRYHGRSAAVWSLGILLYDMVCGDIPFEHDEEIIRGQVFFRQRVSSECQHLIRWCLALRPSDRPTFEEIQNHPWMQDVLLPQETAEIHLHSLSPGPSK

Compound: COC1CCN(c2c(NC(=O)c3nc(-c4cc(C)ccc4F)sc3N)cnn2C)CCC1N (stereo not shown) [Example 325, 5-amino-N-[5-(4-amino-5-methoxy-azepan-1-yl)-1-methyl-pyrazol-4-yl]-2-(2-fluoro-5-methyl-phenyl)thiazole-4-carboxamide]
- EC50 [1]: 752 nM
- Ki (PIM1): 0.153 nM
- IC50 (BaF3 parental cells): 16600 nM
- IC50 (BaF3 PIM1 cells): 191 nM

Compound: [2H]C([2H])([2H])OC1CCN(c2c(NC(=O)c3nc(-c4ccccc4F)sc3N)cnn2C)CCC1N (stereo not shown) [Example 491, 5-amino-N-[5-[4-amino-5-(trideuteriomethoxy)azepan-1-yl]-1-methyl-pyrazol-4-yl]-2-(2-fluorophenyl)thiazole-4-carboxamide]
- EC50 [1]: 67.9 nM
- Ki (PIM1): 0.055 nM
- IC50 (BaF3 parental cells): > 25000 nM
- IC50 (BaF3 PIM1 cells): 44.9 nM

Compound: Cn1ncc(NC(=O)c2nc(-c3cccc(C#N)n3)sc2N)c1N1CC[C@@H](N)CC(F)(F)C1 [Example 461, 5-amino-N-[5-[(5R)-5-amino-3,3-difluoro-azepan-1-yl]-1-methyl-pyrazol-4-yl]-2-(6-cyano-2-pyridyl)thiazole-4-carboxamide]
- EC50 [1]: 211 nM
- Ki (PIM1): 0.08 nM
- IC50 (BaF3 parental cells): 16600 nM
- IC50 (BaF3 PIM1 cells): 39.7 nM

Compound: Cn1ncc(NC(=O)c2nc(-c3c(F)cccc3F)sc2N)c1N1CCC(N)C2(CCO2)CC1 (stereo not shown) [Example 510, 5-amino-N-[5-(5-amino-1-oxa-8-azaspiro[3.6]decan-8-yl)-1-methyl-pyrazol-4-yl]-2-(2,6-difluorophenyl)thiazole-4-carboxamide]
- EC50 [1]: 5600 nM
- Ki (PIM1): 0.095 nM
- IC50 (BaF3 parental cells): 22000 nM
- IC50 (BaF3 PIM1 cells): 623 nM

Compound: COC1(C)CC(N)CCN(c2c(NC(=O)c3nc(-c4c(F)cncc4F)sc3N)cnn2C)C1 (racemic) [Example 440, 5-amino-N-[5-(5-amino-3-methoxy-3-methyl-azepan-1-yl)-1-methyl-pyrazol-4-yl]-2-(3,5-difluoro-4-pyridyl)thiazole-4-carboxamide]
- EC50 [1]: 77.4 nM
- Ki (PIM1): 0.024 nM
- IC50 (BaF3 parental cells): > 25000 nM
- IC50 (BaF3 PIM1 cells): 15.2 nM

Compound: Cn1ncc(NC(=O)c2nc(-c3c(F)cncc3F)sc2N)c1N1CC[C@@H](N)CC(F)(F)C1 [Example 455, 5-amino-N-[5-[(5R)-5-amino-3,3-difluoro-azepan-1-yl]-1-methyl-pyrazol-4-yl]-2-(3,5-difluoro-4-pyridyl)thiazole-4-carboxamide]
- EC50 [1]: 221 nM
- Ki (PIM1): 0.009 nM
- IC50 (BaF3 parental cells): 3900 nM
- IC50 (BaF3 PIM1 cells): 2.57 nM

Compound: Cn1ncc(NC(=O)c2nc(-c3c(F)cncc3F)sc2N)c1N1CCC(N)CC(F)(F)C1 (racemic) [Example 438, 5-amino-N-[5-(5-amino-3,3-difluoro-azepan-1-yl)-1-methyl-pyrazol-4-yl]-2-(3,5-difluoro-4-pyridyl)thiazole-4-carboxamide]
- EC50 [1]: 80.6 nM
- Ki (PIM1): 0.008 nM
- IC50 (BaF3 parental cells): 20300 nM
- IC50 (BaF3 PIM1 cells): 3.03 nM

Compound: Cn1ncc(NC(=O)c2nc(-c3ccccc3F)sc2N)c1N1CCCC(C)(N)CC1 (racemic) [Example 412, 5-amino-N-[5-(4-amino-4-methyl-azepan-1-yl)-1-methyl-pyrazol-4-yl]-2-(2-fluorophenyl)thiazole-4-carboxamide]
- EC50 [1]: 1100 nM
- Ki (PIM1): 0.057 nM
- IC50 (BaF3 parental cells): 7100 nM
- IC50 (BaF3 PIM1 cells): 1500 nM

Compound: COC1CCN(c2c(NC(=O)c3nc(-c4ccccn4)sc3N)cnn2C)CCC1N (racemic) [Example 322, 5-amino-N-[5-(4-amino-5-methoxy-azepan-1-yl)-1-methyl-pyrazol-4-yl]-2-(2-pyridyl)thiazole-4-carboxamide]
- EC50 [1]: 123 nM
- Ki (PIM1): 0.833 nM
- IC50 (BaF3 parental cells): > 25000 nM
- IC50 (BaF3 PIM1 cells): 1400 nM

Compound: COC1CCN(c2c(NC(=O)c3nc(-c4ccccc4F)sc3N)cnn2C)CCC1N (stereo not shown) [Example 324, 5-amino-N-[5-(4-amino-5-methoxy-azepan-1-yl)-1-methyl-pyrazol-4-yl]-2-(2-fluorophenyl)thiazole-4-carboxamide]
- EC50 [1]: 32 nM
- Ki (PIM1): 0.0694 nM
- IC50 (BaF3 parental cells): 19600 nM
- IC50 (BaF3 PIM1 cells): 33.6 nM
